From patent US20050119238A1, “Compositions and methods for preventing sporadic neoplasia in colon” (priority 2002, published 2005)

How the values were obtained:
[1] = tested on: patients with sporadic (non-hereditary) colorectal neoplasia (adenomas); test: Randomized, double-blind, placebo-controlled study of aspirin on occurrence of large bowel adenomas; assay type: in vivo, human
From the text: Patients were recruited at nine centers in North America.
By protocol, subjects were to have a complete surveillance colonoscopy 34-40 months after the qualifying examination. At each colonoscopy, the endoscopist recorded the estimated size and location of all polyps and mucosal lesions suspicious for neoplasia as per usual clinical practice. Each lesion was removed and examined histologically at the clinical center and by the study pathologist. Polyps were classified as neoplastic (adenomatous) or non-neoplastic (e.g., hyperplastic) by the study pathologist.
The primary study outcome was the proportion of subjects with one or more colorectal adenomas detected during the period from one year after randomization through the anticipated surveillance follow-up. If a surveillance colonoscopy was not performed during the protocol time window, the last examination at least one year after randomization was taken as the follow-up exam. Pre-specified secondary outcomes were the numbers of large-bowel adenomas and “advanced lesions”: tubulovillous adenomas (25 to 75 percent villous features), villous adenomas (>75 percent villous), large adenomas ([…]), severe dysplasia, or invasive cancer. Separate analyses were also conducted for lesions in the left colorectum (descending colon, sigmoid colon, and rectum) and right colorectum (the remainder of the bowel).

[2] = Serious medical events in the randomized placebo-controlled aspirin study; settings: for Serious Bleeding, Gastrointestinal / Serious Bleeding, Genitourinary: bleeding leading to hospitalization or surgical intervention
Method: A multi-center, randomized, double-blind, placebo-controlled study was performed that examined the effects of aspirin alone as well as folate treatment combined with aspirin on the occurrence of large bowel adenomas. The study has a 3-by-2 factorial design, investigating aspirin (placebo, 81 mg/day, or 325 mg/day) and folic acid (placebo or 1 mg/day). Patients were recruited at nine centers in North America. Eligible subjects had at least one of the following: (1) one or more histologically confirmed large-bowel adenomas removed within 3 months prior to recruitment, (2) one or more histologically confirmed large-bowel adenomas removed within 16 months before recruitment and a lifetime history of 2 or more confirmed large-bowel adenomas, or (3) a histologically confirmed large-bowel adenoma at least 1 cm in diameter removed within 16 months before recruitment. […] Eligible subjects were between 21 and 80 years old, in good health, and with anticipated colonoscopic follow-up three years after the qualifying examination. Exclusion criteria included a history of a familial colorectal cancer syndrome, invasive large-bowel cancer, malabsorption syndromes, any condition potentially worsened by supplemental aspirin or folic acid, or any condition commonly treated with aspirin, non-steroidal anti-inflammatory drugs (NSAIDs), or folate (e.g., recurrent arthritis, atherosclerotic vascular disease, folic acid deficiency).
Study coordinators at each center maintained contact with the subjects on a regular basis; interval questionnaires regarding possible side effects and medical events were completed every four months by each subject.
Subjects were regularly counseled regarding avoidance of aspirin and other NSAIDs. Lists of products containing aspirin, ibuprofen, or naproxen were provided, and acetaminophen was distributed for treatment of minor febrile illnesses and pain. Every four months, subjects received questionnaires regarding adherence to study treatment; use of medications, over-the-counter drugs and nutritional supplements; and occurrence of symptoms, illnesses, and hospitalizations.
The statistical analysis compared the aspirin treatment groups irrespective of folic acid treatment. Subjects who underwent a follow-up endoscopy at least one year following randomization were included in the analyses. The predefined primary statistical analysis was a 2 degree-of-freedom chi-squared test for a contingency table comparing treatment groups regarding risk of one or more new adenomas. Crude risk ratios and 95 percent confidence intervals were used to compare treatment groups to placebo. Adjusted risk ratios were obtained from log-linear models with age, gender, clinical center, number of lifetime adenomas, and duration of follow-up as covariates. […] Possible modification of treatment effects by baseline characteristics was assessed using interaction terms in the log-linear model. Counts of other clinical endpoints were compared using Fisher's exact test. To compare the effect of aspirin on different types of polyps, a logistic regression model was used with generalized estimating equations (Liang and Zeger Biometrika 1986:13-22) to account for the clustering of multiple endpoints within patients. […] Two-sided P-values <0.05 were considered statistically significant.

CC(=O)Oc1ccccc1C(=O)O [aspirin, acetylsalicylic acid]
Relative Crude Risk (95% CI) ([1]; Any adenoma, both aspirin groups combined versus placebo): 0.88 (0.77-1.02)
incidence of adenomas ([1]; patients randomized to the aspirin groups): significantly lower
Coronary Revascularization ([2]; 81 mg aspirin (N = 377)): 3 no of subjects
Deaths ([2]; 81 mg aspirin (N = 377)): 3 no of subjects
Died (percent) ([2]; 81 mg aspirin (N = 377)): 0.8%
Hospitalization ([2]; 81 mg aspirin (N = 377)): 61 no of subjects
Myocardial Infarction ([2]; 81 mg aspirin (N = 377)): 2 no of subjects
Non-Colorectal Cancer ([2]; 81 mg aspirin (N = 377)): 14 no of subjects
Stroke ([2]; 81 mg aspirin (N = 377)): 2 no of subjects
Serious Bleeding, Gastrointestinal ([2]; 81 mg aspirin (N = 377)): 2 no of subjects
Serious Bleeding, Genitourinary ([2]; 81 mg aspirin (N = 377)): 6 no of subjects
Coronary Revascularization ([2]; 325 mg aspirin (N = 372)): 5 no of subjects
Deaths ([2]; 325 mg aspirin (N = 372)): 4 no of subjects
Died (percent) ([2]; 325 mg aspirin (N = 372)): 1.1%
Hospitalization ([2]; 325 mg aspirin (N = 372)): 57 no of subjects
Myocardial Infarction ([2]; 325 mg aspirin (N = 372)): 4 no of subjects
Non-Colorectal Cancer ([2]; 325 mg aspirin (N = 372)): 9 no of subjects
Stroke ([2]; 325 mg aspirin (N = 372)): 5 no of subjects
Serious Bleeding, Gastrointestinal ([2]; 325 mg aspirin (N = 372)): 4 no of subjects
Serious Bleeding, Genitourinary ([2]; 325 mg aspirin (N = 372)): 2 no of subjects
Hospitalization, cancer and myocardial infarction, occurrence ([2]; aspirin groups versus placebo, differences compatible with chance): somewhat more frequently
patients diagnosed with a stroke (all non-fatal) ([2]; both aspirin groups together, none on placebo): Seven
